From patent publication US11999758B2, “Inhibitors of the YAP/TAZ-TEAD interaction and their use in the treatment of cancer” (INVENTIVA, priority 2018, dated 2024) come the findings set out here.

Each structure is given as a SMILES string.

This experiment has as its target T1, YAP-TEAD interaction (Homo sapiens, UniProt P28347).
T1 construct: expressed in transfected cells; host or cells: HEK293 GripTite 293 MSR (Invitrogen R795-07)
The experiment is described as follows: Cell-based TEAD-GAL4 transactivation assay (luciferase reporter). Conditions: HEK293 cells transfected with TEAD1-Gal4, YAP mutant (S127A, S397A) and luciferase reporter, compounds 0.1 μM to 30 μM; for Emax: HEK293, 24 h, read-out: TEAD-GAL4 Transactivation activity Max Act; for IC50: 24 h. How it is done: To identify inhibitors of YAP-TEAD interaction, a transient transactivation assay was carried out on HEK293 cell line (HEK293 GripTite™ 293 MSR (Invitrogen R795-07)) using plasmids containing the full length TEAD1 sequences, the full length YAP mutant (S127A, S397A) and a luciferase gene reporter. All expression constructs were performed into a pSG5 backbone plasmid in which the SV40 promoter was replaced by the CMV promoter. The TEAD1 construct was prepared by cloning the full-length human TEAD1 cDNA in fusion with the Gal4 DNA Binding Domain (AA 1-148) into pSG5_CMV to create the TEAD1 (FL)_hum_pSG5Gal4_CMV. The full-length YAP mutant (S127A, S397A) was also cloned into pSG5_CMV to create the YAP (FL)_hum_pSG5_mutS127A_S397A_CMV. The reporter plasmid GAL4(5×RE)_TK(−105/+56)_pGL3-Basic contains 5 copies of the GAL4 responsive element (5′-TCGGAGGACAGTACTCC-3′) upstream of the thymidine kinase (TK) promoter (−105/+56) inserted in a pGL3-Basic vector. To evaluate the selectivity of our compounds in blocking the YAP-TEAD interaction, a counter-screening protein-protein interaction transactivation assay was also established. Briefly, two other expression plasmids, the pBD-P53 which expresses the P53 (AA 72-390) in fusion with Gal4 and the pAD-SV40T which expresses the SV40 large T antigen (AA 84-708,AgT), were created. HEK293 cells were seeded at 5×10^4 cells/well in 96 well plates (assay plates) in DMEM medium containing 4.5 g/L D-glucose, 10% high inactivated (HI) fetal bovine serum 1% Glutamax, 1% non-essential amino acid and 1% sodium pyruvate and 0.5% penicillin/streptomycin at 37° C. in a humidified atmosphere of 8% CO2. After 24 h, transfections were performed using Jet-PEI as transfectant (101B-010 Polyplus Transfection), according to the instructions of the manufacturer (N/P=10) and a ratio YAP/TEAD=10 (per well: 50 ng of YAP(FL), 5 ng of TEAD(FL) and 50 ng of reporter plasmid). Six hours after cell transfection, the plates (‘assay plate’) were washed with 100 μl PBS per well and cells were treated with compounds in semi-log from 0.1 μM to 30 μM or DMSO 0.5% as control in DMEM, 4.5 g/L D-Glucose without phenol red, 0.3% BSA, 1% glutamax, 1% NEAA, 1% sodium pyruvate. 24 h later, the luciferase activity was determined after addition of 100 μl of Steady Glo™ luciferase assay system (Promega E2550) according to the manufacturer's directions. Luciferase activity in cell extracts was measured by reading luminescence using the Envision device.
The cellular response was determined by fitting the concentration response curves using a 3-parameter curve fit equation and determining the concentration that inhibited the luciferase activity by 50%.
(In general: In a reporter assay the amount or activity of a reporter protein is the signal.)

T1 sequence (P28347 whole entry): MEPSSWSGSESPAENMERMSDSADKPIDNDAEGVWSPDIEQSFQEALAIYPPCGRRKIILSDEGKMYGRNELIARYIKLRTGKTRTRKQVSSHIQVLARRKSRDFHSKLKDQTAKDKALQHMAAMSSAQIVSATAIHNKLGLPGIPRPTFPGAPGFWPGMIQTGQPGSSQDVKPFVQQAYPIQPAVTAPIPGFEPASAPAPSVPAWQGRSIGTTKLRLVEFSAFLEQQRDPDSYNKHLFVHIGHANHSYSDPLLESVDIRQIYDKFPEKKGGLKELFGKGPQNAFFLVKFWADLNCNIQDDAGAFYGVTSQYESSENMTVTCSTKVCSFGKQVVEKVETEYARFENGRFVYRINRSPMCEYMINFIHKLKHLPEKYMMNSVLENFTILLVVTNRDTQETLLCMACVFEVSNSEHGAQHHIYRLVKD

The term IC50 denotes the concentration that inhibits the measured activity by half. High values mean lower potency, low ones higher potency. On to `CCN(/N=C/c1ccc2c(c1)COB2O)c1ncnc2cc(C)sc12` [Ex90, N-ethyl-N-[(E)-(1-hydroxy-3H-2,1-benzoxaborol-5-yl)methyleneamino]-6-methyl-thieno[3,2-d]pyrimidin-4-amine], for which the Emax was 83% and the half-maximal inhibitory concentration (IC50) stood at 1260 nM.

For `COc1cccc2c(N3N=C(c4ccc5c(c4)COB5O)CCC3C)ncnc12` (stereo not shown) [Ex 56, 4-[6-(1-hydroxy-3H-2,1-benzoxaborol-5-yl)-3-methyl-4,5-dihydro-3H-pyridazin-2-yl]-8-methoxy-quinazoline], the Emax is 84% and half-maximal inhibition (IC50) was put at 1000 nM. In the same order, the values of `COc1ccc2c(c1)S(=O)(=O)N=C2N(CC(C)C)/N=C/c1ccc2c(c1)COB2O` [Ex 30, N-[(E)-(1-hydroxy-3H-2,1-benzoxaborol-5-yl)methyleneamino]-N-isobutyl-6-methoxy-1,1-dioxo-1,2-benzothiazol-3-amine] are 86% and 3840 nM.

Take `CC(C)CN(/N=C/c1ccc2c(c1)COB2O)C1=NS(=O)(=O)c2ccccc21` [Ex 23, N-[(E)-(1-hydroxy-3H-2,1-benzoxaborol-5-yl)methyleneamino]-N-isobutyl-1,1-dioxo-1,2-benzothiazol-3-amine]: the Emax worked out at 88% and the IC50 was 3110 nM.

For the compound `COc1cc(/C=N/N(CC(C)C)C2=NS(=O)(=O)c3ccccc32)ccc1B1OC(=O)CN(C)CC(=O)O1` [Ex 61, 2-[4-[(E)-[(1,1-dioxo-1,2-benzothiazol-3-yl)-isobutyl-hydrazono]methyl]-2-methoxy-phenyl]-6-methyl-1,3,6,2-dioxazaborocane-4,8-dione], the Emax is 87% and the IC50 worked out at 6630 nM.

Consider `COCCN(/N=C/c1ccc(B(O)O)c(OC)c1)c1ncnc2ccsc12` [Ex70, [2-methoxy-4-[(E)-[2-methoxyethyl(thieno[3,2-d]pyrimidin-4-yl) hydrazono]methyl]phenyl]boronic acid], for which the Emax came to 87% and the IC50 worked out at 1880 nM.

On to `CCN(/N=C/c1ccc2c(c1)COB2O)c1ncnc2ncsc12` [Ex87, N-ethyl-N-[(E)-(1-hydroxy-3H-2,1-benzoxaborol-5-yl)methyleneamino]-thiazolo[4,5-d]pyrimidin-7-amine], for which the Emax was found to be 82% and half-maximal inhibition (IC50) required 590 nM.

For the compound `COCCCN(/N=C/c1ccc2c(c1)COB2O)c1ncnc2nc(SC)sc12` [Ex96, N-[(E)-(1-hydroxy-3H-2,1-benzoxaborol-5-yl)methyleneamino]-N-(3-methoxypropyl)-2-methylsulfanyl-thiazolo[4,5-d]pyrimidin-7-amine], the Emax is 87% and the IC50 was found to be 100 nM. As to `COc1cccc2c(N(C)/N=C/c3ccc4c(c3)COB4O)ncnc12` [Ex 33, N-[(E)-(1-hydroxy-3H-2,1-benzoxaborol-5-yl)methyleneamino]-8-methoxy-N-methyl-quinazolin-4-amine], the Emax amounted to 86% and inhibition was half-maximal at 4000 nM (IC50). Take `CCN(/N=C/c1ccc2c(c1)COB2O)c1ncnc2cc[nH]c12` [Ex81, N-ethyl-N-[(E)-(1-hydroxy-3H-2,1-benzoxaborol-5-yl)methyleneamino]-5H-pyrrolo[3,2-d]pyrimidin-4-amine]: the Emax stood at 79% and the IC50 was 1750 nM. As for `COc1cc(C2=NN(c3ncnc4c3ccn4C)C(C)CC2)ccc1B(O)O` (stereo not shown) [Ex73, [2-methoxy-4-[3-methyl-2-(7-methylpyrrolo[2,3-d]pyrimidin-4-yl)-4,5-dihydro-3H-pyridazin-6-yl]phenyl]boronic acid], the Emax is 88% and the IC50 turned out to be 2240 nM.

As for `CCc1csc2c(N(C)/N=C/c3ccc4c(c3)COB4O)ncnc12` [Ex105, 7-ethyl-N-[(E)-(1-hydroxy-3H-2,1-benzoxaborol-5-yl)methyleneamino]-N-methyl-thieno[3,2-d]pyrimidin-4-amine], the Emax stood at 83% and 510 nM corresponded to half-maximal inhibition (IC50). In the case of `CCN(/N=C/c1ccc(B(O)O)c(OC)c1)c1ncnc2occc12` [Ex65, [4-[(E)-[ethyl(furo[2,3-d]pyrimidin-4-yl)hydrazono]methyl]-2-methoxy-phenyl]boronic acid], the Emax turned out to be 92% and the IC50 is 1980 nM.

Consider `CCN(/N=C/c1ccc2c(c1)COB2O)c1ncnc2c1ccn2CC` [Ex85, N,7-diethyl-N-[(E)-(1-hydroxy-3H-2,1-benzoxaborol-5-yl)methyleneamino]pyrrolo [2,3-d]pyrimidin-4-amine], for which the Emax came to 81% and the IC50 came to 610 nM.

Consider `CCN(/N=C/c1ccc(B(O)O)c(OC)c1)c1ncnc2ncsc12` [Ex64, [4-[(E)-[ethyl(thiazolo[4,5-d]pyrimidin-7-yl)hydrazono]methyl]-2-methoxy-phenyl]boronic acid], for which the Emax was determined as 96% and half-maximal inhibition (IC50) required 2760 nM.

Take `CCC(C)N(/N=C/c1ccc(B(O)O)c(OC)c1)C1=NS(=O)(=O)c2ccccc21` (stereo not shown) [Ex 16, [4-[(E)-[(1,1-dioxo-1,2-benzothiazol-3-yl)-sec-butyl-hydrazono]methyl]-2-methoxyphenyl]boronic acid]: the Emax stood at 76% and the IC50 was 4160 nM.

On to `CN(/N=C/c1ccc2c(c1)COB2O)C1=NS(=O)(=O)C2=C1CCCC2` [Ex 51, N-[(E)-(1-hydroxy-3H-2,1-benzoxaborol-5-yl)methyleneamino]-N-methyl-1,1-dioxo-4,5,6,7-tetrahydro-1,2-benzothiazol-3-amine], for which the Emax is 75% and 8480 nM corresponded to half-maximal inhibition (IC50). In the case of `Cc1ccc2c(c1)C(N(CC(C)C)/N=C/c1ccc3c(c1)COB3O)=NS2(=O)=O` [Ex 29, N-[(E)-(1-hydroxy-3H-2,1-benzoxaborol-5-yl)methyleneamino]-N-isobutyl-5-methyl-1,1-dioxo-1,2-benzothiazol-3-amine], the Emax is 91%.

For `CC(C)CN(/N=C/c1ccc2c(c1)C(C)OB2O)C1=NS(=O)(=O)c2ccccc21` (stereo not shown) [Ex 49, N-[(E)-(1-hydroxy-3-methyl-3H-2,1-benzoxaborol-5-yl)methyleneamino]-N-isobutyl-1,1-dioxo-1,2-benzothiazol-3-amine], the Emax stood at 88% and the IC50 is 4680 nM. Consider `CSc1nc2ncnc(N3N=C(c4ccc5c(c4)COB5O)CCC3C)c2s1` (stereo not shown) [Ex123, 7-[6-(1-hydroxy-3H-2,1-benzoxaborol-5-yl)-3-methyl-4,5-dihydro-3H-pyridazin-2-yl]-2-methylsulfanyl-thiazolo[4,5-d]pyrimidine], for which the Emax stood at 96% and the IC50 came to 200 nM. In the same order, the values of `CCN(/N=C/c1ccc(B(O)O)c(OC)c1)c1ncnc2c1ccn2C` [Ex66, [4-[(E)-[ethyl-(7-methylpyrrolo[2,3-d]pyrimidin-4-yl)hydrazono]methyl]-2-methoxy-phenyl]boronic acid] are 87% and 2150 nM. As to `COc1cnnc(N(C)/N=C/c2ccc3c(c2)COB3O)c1` [Ex 60, N-[(E)-(1-hydroxy-3H-2,1-benzoxaborol-5-yl)methyleneamino]-5-methoxy-N-methyl-pyridazin-3-amine], the Emax stood at 79% and half-maximal inhibition (IC50) was put at 5000 nM.

Consider `CCN(/N=C/c1ccc2c(c1)COB2O)c1ncnc2sccc12` [Ex 40, N-ethyl-N-[(E)-(1-hydroxy-3H-2,1-benzoxaborol-5-yl)methyleneamino]-thieno[2,3-d]pyrimidin-4-amine], for which the Emax was 85% and it took 690 nM to reach half-maximal inhibition (IC50). Regarding `CCN(/N=C/c1ccc2c(c1)COB2O)c1ncnc2cc(F)ccc12` [Ex89, N-ethyl-7-fluoro-N-[(E)-(1-hydroxy-3H-2,1-benzoxaborol-5-yl)-methyleneamino]quinazolin-4-amine], the Emax was determined as 85% and inhibition was half-maximal at 820 nM (IC50). In the case of `COc1cc(C2=NN(c3ncnc4cc(F)ccc34)CC(C)O2)ccc1B(O)O` (stereo not shown) [Ex74, [4-[4-(7-fluoroquinazolin-4-yl)-6-methyl-5,6-dihydro-1,3,4-oxadiazin-2-yl]-2-methoxy-phenyl]boronic acid], the Emax worked out at 83% and the IC50 was 2360 nM.
